Key:
rabbit aortic rings = experiment: Assay B: In vitro vascular smooth muscle response for AII (antagonist activity, pA2); type: cell-based; settings: Oryctolagus cuniculus, two values in a cell = two determinations
Description: Assay B: In Vitro Vascular Smooth Muscle-Response for AII
The compounds of the invention were tested for antagonist activity in rabbit aortic rings. Male New Zealand white rabbits (2-2.5 kg) were sacrificed using an overdose of pentobarbital and exsanguinated via the carotid arteries. The thoracic aorta was removed, cleaned of adherent fat and connective tissue and then cut into 3-mm ring segments. The endothelium was removed from the rings by gently sliding a rolled-up piece of filter paper into the vessel lumen. The rings were then mounted in a water-jacketed tissue bath, maintained at 37° C., between moveable and fixed ends of a stainless steel wire with the moveable end attached to an FT03 Grass transducer coupled to a Model 7D Grass Polygraph for recording isometric force responses. The bath was filled with 20 ml of oxygenated (95% oxygen/5% carbon dioxide) Krebs solution of the following composition (mM): 130 NaCl, 15 NaHCO3, […], 1.2 NaH2PO4, 1.2 MgSO4, 2.5 CaCl2, and 11.4 glucose. The preparations were equilibrated for one hour before approximately one gram of passive tension was placed on the rings. Angiotensin II concentration-response curves were then recorded (3×10^−10 to 1×10^−5 M). Each concentration of AII was allowed to elicit its maximal contraction, and then AII was washed out repeatedly for 30 minutes before rechallenging with a higher concentration of AII. Aorta rings were exposed to the test antagonist at 10^−5 M for 5 minutes before challenging with AII. Adjacent segments of the same aorta ring were used for all concentration-response curves in the presence or absence of the test antagonist. The effectiveness of the test compound was expressed in terms of pA2 values and were calculated according to H. O. Schild [Br. J. Pharmacol. Chemother., 2, 189-206 (1947)]. The pA2 value is […] which increases the EC50 value for AII by a factor of two. Each test antagonist was evaluated in aorta rings from two rabbits.

pressor response to AII = experiment: Assay C: In vivo intragastric pressor assay response for AII antagonists; design: species or system Sprague-Dawley rats; settings: in vivo pressor response, 3 mg/kg intragastrically
[1] = molecular target: angiotensin II AT1 receptor; experiment: Assay A: Angiotensin II binding activity, rat uterine membrane preparation, 125I-AII displacement

Compound	Kb (rabbit aortic rings) [nM]	inhibition in vivo at 3 mg/kg (pressor response to AII; Rattus norvegicus, po) [%]	Assay C Duration (pressor response to AII) [min]	IC50 [1] [nM]
CCCCc1nc2c(CCC)nnc(O)c2n1Cc1ccc(-c2ccccc2-c2nnn[nH]2)cc1 [Compound 124]	0.38	45	>180	
CCCCc1nc(CNC(=O)CCC(NC(C)=O)C(=O)OC(C)(C)C)nn1Cc1ccc(-c2ccccc2-c2nnn[nH]2)cc1 (stereo not drawn) [Compound 52]	7.24			100
CCCCc1cn(CCc2ccccc2)c(=O)n1Cc1ccc(-c2ccccc2-c2nnn[nH]2)cc1 [Compound 144]	20			0.088
CCCCc1ncn(Cc2ccc(-c3ccccc3-c3nnn[nH]3)cc2)n1 [Compound 65]	14.1			23
CCCCc1nc(C(OC)OC)nn1Cc1ccc(-c2ccccc2-c2nnn[nH]2)cc1 [Compound 35]	56.2			41
CCCCc1nc(CC)nn1Cc1ccc(-c2ccccc2-c2nnn[nH]2)cc1 [Compound 50]	19.5			54
CCCCn1nc(C(C)=O)nc1Cc1ccc(-c2ccccc2-c2nnn[nH]2)nc1 [Compound 194]	22.9			47
CCCCc1nc(-c2ccccc2Cl)n(Cc2ccc(-c3ccccc3-c3nnn[nH]3)nc2)n1 [Compound 279]	8.71			270
CCCCc1nc(C23CC4CC(CC(C4)C2)C3)nn1Cc1ccc(-c2ccccc2-c2nnn[nH]2)cc1 [Compound 67]	1320			3100
CCCCc1nc(CCC(=O)O)nn1Cc1ccc(-c2ccccc2-c2nnn[nH]2)cc1 [Compound 74]	2.75			6.5
CCCCc1nn(CC(OCC(=O)O)c2ccccc2)c(=O)n1Cc1ccc(-c2ccccc2-c2nn[nH]n2)cc1 (stereo not drawn) [Compound 102]	20			43
CCCCc1nn(CCCC)c(=O)n1Cc1ccc(-c2ccccc2-c2nnn[nH]2)cc1 [Compound 90]	1			5.6
CCCCCn1nc(CCCC)nc1Cc1ccc(-c2ccccc2-c2nnn[nH]2)nc1 [Compound 166]	26.9			160
CCCCc1nc(CC23CC4CC(CC(C4)C2)C3)nn1Cc1ccc(-c2ccccc2-c2nnn[nH]2)cc1 [Compound 73]	22.4			790
CCCCc1nn(CCC2CCCCC2)c(=O)n1Cc1ccc(-c2ccccc2-c2nn[nH]n2)cc1 [Compound 100]	0.398			4.4
CCCCc1nc(C(F)F)nn1Cc1ccc(-c2ccccc2-c2nnn[nH]2)cc1 [Compound 58]	355			140
CCCCc1nc(CC)n(Cc2ccc(-c3ccccc3C(=O)O)cc2)n1 [Compound 87]	15.8			91
CCCCc1nc(CCCN)nn1Cc1ccc(-c2ccccc2-c2nnn[nH]2)cc1 [Compound 83]	5.01			3.6
CCCCc1nn(C/C=C/c2ccccc2)c(=O)n1Cc1ccc(-c2ccccc2-c2nn[nH]n2)cc1 [Compound 116]	316			230
CCCCc1cn(-c2ccccc2Cl)c(=O)n1Cc1ccc(-c2ccccc2-c2nnn[nH]2)cc1 [Compound 146]	398			0.072
CCCCc1nc(CNC(=O)OC(C)(C)C)nn1Cc1ccc(-c2ccccc2-c2nnn[nH]2)cc1 [Compound 46]	158			110
CCCCc1nn(CCCCC(=O)O)c(=O)n1Cc1ccc(-c2ccccc2-c2nn[nH]n2)cc1 [Compound 114]	398			400
CCCCc1nn(C(Cc2ccccc2)C(=O)c2ccccc2)c(=O)n1Cc1ccc(-c2ccccc2-c2nn[nH]n2)cc1 (stereo not drawn) [Compound 105]	251			290
CCCCc1nc(Cl)nn1Cc1ccc(-c2ccccc2-c2nnn[nH]2)cc1 [Compound 18]	724			970
CCCCc1nn(CCCc2ccccc2)c(=O)n1Cc1ccc(-c2ccccc2-c2nn[nH]n2)cc1 [Compound 92]	12.6			35

From patent US20040102423A1, “Spironolactone and angiotensin II antagonist combination therapy for treatment of congestive heart failure” (G.D. Searle & Co., priority 1995, published 2004)
